This is an account of results in patent US10703737B2, “HDAC inhibitors and uses thereof” (MUSC FOUNDATION FOR RESEARCH DEVELOPMENT, priority 2018, dated 2020).

The target in one experiment is HDAC2 (Homo sapiens, UniProt Q92769). In words: HDAC2 inhibition IC50. It is filed as biochemical.
Another experiment concerns the target HDAC1 (Homo sapiens, UniProt Q13547). The experiment is described as follows: HDAC1 inhibition IC50. It is filed as biochemical.
For the next experiment, the target named is HDAC3 (Homo sapiens, UniProt O15379). In words: HDAC3 inhibition IC50. It is filed as biochemical.
In a further experiment the test system is succinate dehydrogenase. In words: SDH activity in tissue lysates from reperfused Langendorff hearts. More on the design: species or system rat. As to conditions: Langendorff hearts treated at reperfusion. As for the experimental part: (§1) N=3 per group. (B) Treatment of Langendorff hearts with HDAC inhibitors reduce succinate dehydrogenase activity. SDH activity was measured in tissue lysates from reperfused hearts treated with either MS275 or LL-66 at reperfusion. N=4 per group. (C) SDHA activity was measured in mitochondria isolated from HEK2.93 cells expressing WT, K480Q or K480R mutants. N=4
(§2) Therefore, since inhibition of the mitochondrial HDAC1 represses SDH activity and. K538 is hyperacetylated in IR when HDAC1 is inhibited, the inventors first proposed to test whether K538 acetylation represses SDH activity. The inventors have made and expressed the mouse WT, K538Q and K538R point mutants of SDHA in HEK293 cells to determine if acetylation of K538 also represses SDH activity. Contrary to what the inventors had hoped the K538Q and K538R SDHA mutants had no difference in SDHA activity from WT SDHA after normalization for expression (data not shown). […] The K480R has WT activity and K.480Q has suppressed SDHA activity (FIG. 5C) when expressed in HEK293 cells.

In experiment [1] the test system is isolated adult rat cardiac myocytes. In words: Seahorse oxygen consumption rate (OCR) in myocytes, normoxia or simulated hypoxia-reoxygenation. It counts as cell-based. The method, then: (§3) FCCP was injected at point A and […] injected at point B. (B) Measurements of OCR in isolated myocytes subjected to normoxia (blue) or chemical hypoxia. reoxygenation (red) and reperfused with DMSO (red), MS-275 (pink), or LL-66 (peach). For (A) and (B), top panels are representative, bottom panels are the uncoupled rate as a percentage of baseline rate over 4 runs. (C) Oxyblotting of tissue homogenates from Langendorff hearts subjected to I/R+/−LL-66 or MS-275. Representative seahorse data are represented mean +/−SEM, Bar graphs are represented mean +/−S.D. For all experiments, N-4, one way ANOVA with Dunnet post test *p<0.05, **p<0.01.
Since acetylation is known to regulate the activity of mitochondrial enzymes involved in multiple metabolic pathways, the inventors decided to determine if class I HDAC inhibition affects metabolic activity in cardiac myocytes both at baseline and when subjected to simulated hypoxia-reoxygenation (sI/R). For these experiments, isolated adult rat cardiac myocytes were subjected to chemical hypoxia or normoxia control for 90 minutes, then reperfused in the presence of DMSO vehicle, MS-275, or LL-66 for 60 minutes. At the conclusion of the reperfusion period, myocytes were loaded into a Seahorse extracellular flux analyzer and the oxygen consumption rate (OCR) was analyzed at baseline and in response to FCCP (injection A) and […] (injection B).

Another experiment has as its system Langendorff hearts. In words: Oxyblotting of lysates from Langendorff hearts subjected to I/R. The conditions noted are these: I/R hearts +/- drug. More on the design: species or system rat. As for the experimental part:
as §3
Since acetylation is known to regulate the activity of mitochondrial enzymes involved in multiple metabolic pathways, the inventors decided to determine if class I HDAC inhibition affects metabolic activity in cardiac myocytes both at baseline and when subjected to simulated hypoxia-reoxygenation (sI/R). […] At the conclusion of the reperfusion period, myocytes were loaded into a Seahorse extracellular flux analyzer and the oxygen consumption rate (OCR) was analyzed at baseline and in response to FCCP (injection A) and […] (injection B).

The next experiment relates to SDHA. In words: Mass spectrometry of protein acetyl-lysine in I/R hearts treated at reperfusion. More on the design: species or system rat. The conditions noted are these: for change in SDHA acetylation: I/R hearts, treated at reperfusion, preliminary MS data; for acetylation of SDHA K480: IR with drug treatment. As for the experimental part: as §1
Samples from I/R hearts treated with LL-66, LL-224, MS-275 and vehicle at reperfusion were prepared for mass spectrometry to detect changes in protein acetyl-lysine. […] The inventors previously proposed to first focus on the lysine corresponding to mouse SDHA K538. […] SDH is unique in that it is the only enzyme that participates both in the Krebs cycle and oxidative phosphorylation in mitochondria. Thirteen acetyl-lysine's have been identified on SDHA but there is no acetylation of SDHB^11*, and SDHA is hyper-acetylated in the Sirt3 knockout mouse. […] HEK293 lowers SDH basal activity^13*, SDH K179 is a target of Sirt3.
as §2

The subject of experiment [2] is hearts from Sprague-Dawley rats. The experiment is described as follows: Langendorff isolated heart ischemia-reperfusion model, drug at reperfusion (ex vivo). As to conditions: drug during reperfusion; for left ventricular function (dP/dtmax, dP/dtmin, developed pressure, rate pressure product): 30 min ischemia, 60 min reperfusion, vs drug-free control; for infarct area / viable myocardium (TTC staining): end of 60 min reperfusion. As for the experimental part:
(B) Graphs represent measurements of left ventricular function after 30 minutes of ischemia and 60 minutes of reperfusion. dP/dtmax indicates the rate of pressure development, dP/dtmin indicates the rate of pressure relaxation, Developed Pressure was calculated as the difference between the systolic and diastolic pressures, Rate Pressure Product was calculated as the developed pressure multiplied by the heart rate. Measurements were taken at the end of reperfusion. (C) TTC staining for infarct area at the end of reperfusion; yellow/white region indicates area of infarction. Infarct areas were measured using imageJ software. All data are represented as mean+/−S.D. N=4, t-test *p,0.05.
FIG. 3 provides data showing (A) Confocal fluorescent images of myocytes loaded with LL-66 and Mitotracker Deep Red FM. (B) LV functional measurements taken at the end of 30 minutes ischemia and 60 minutes of reperfusion, represented as a percentage of baseline pre-ischemia function. dP/dtmax indicates the rate of pressure development, dP/dtmin indicates the rate of pressure relaxation, Developed Pressure was calculated as the difference between the systolic and diastolic pressures, Rate Pressure Product was calculated as the developed pressure multiplied by the heart rate. Measurements were taken at the end of reperfusion. (C) TTC staining for infarct at the end of reperfusion; yellow/white region indicates area of infarction. Infarct areas were measured using image) software. (D) Area of Infarction for each of the groups in (C). N=3 for (A), For B-D, All data are represented as mean+/−S.D. N=4 t-test for panel B, one way ANOVA with bonferroni post-test for panel D *p<0.05.
To test whether selective class I HDAC inhibition can postcondition the heart against […], the inventors isolated hearts from Sprague-Dawley rats and perfused them using a constant pressure Langendorff apparatus. After 15 minutes of equilibration, the inventors subjected the hearts to 30 minutes of ischemia, followed by 60 minutes of reperfusion. The selective class I HDAC inhibitor MS-275 was administered throughout the reperfusion phase and compared to drug-free control hearts (FIG. 1A). In order to measure left ventricular functional performance, a saline-filled balloon was inserted into the left ventricle and attached to a pressure transducer. […] At the conclusion of the 60 minute reperfusion period, hearts were removed from the perfusion column and sliced into 2 mm transverse sections using a tissue slicing matrix. Hearts were then incubated in 2,3,5-triphenyltetrazolium chloride ([…]) in order to determine the amount of infarcted myocardium. […]

Setting [3] is: at baseline (normoxia), FCCP-uncoupled.
Setting [4] is: following sI/R (90 min chemical hypoxia, 60 min reperfusion with drug).

Each structure is given as a SMILES string.

Sequence of HDAC1 (Q13547 whole entry, species assumed): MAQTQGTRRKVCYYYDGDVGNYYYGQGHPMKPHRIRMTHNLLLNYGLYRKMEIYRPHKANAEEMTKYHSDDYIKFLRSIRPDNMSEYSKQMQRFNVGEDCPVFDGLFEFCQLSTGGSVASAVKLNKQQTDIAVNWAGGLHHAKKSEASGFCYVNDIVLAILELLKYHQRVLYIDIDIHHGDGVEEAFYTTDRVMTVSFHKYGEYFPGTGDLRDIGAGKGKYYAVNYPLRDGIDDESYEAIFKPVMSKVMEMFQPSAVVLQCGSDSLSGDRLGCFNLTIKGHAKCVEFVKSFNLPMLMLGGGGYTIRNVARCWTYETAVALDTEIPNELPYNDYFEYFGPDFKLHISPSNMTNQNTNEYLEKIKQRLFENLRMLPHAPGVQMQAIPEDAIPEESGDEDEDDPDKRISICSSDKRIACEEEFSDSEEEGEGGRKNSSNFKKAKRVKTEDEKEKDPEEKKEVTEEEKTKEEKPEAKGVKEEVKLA
Sequence of HDAC2 (Q92769 whole entry, species assumed): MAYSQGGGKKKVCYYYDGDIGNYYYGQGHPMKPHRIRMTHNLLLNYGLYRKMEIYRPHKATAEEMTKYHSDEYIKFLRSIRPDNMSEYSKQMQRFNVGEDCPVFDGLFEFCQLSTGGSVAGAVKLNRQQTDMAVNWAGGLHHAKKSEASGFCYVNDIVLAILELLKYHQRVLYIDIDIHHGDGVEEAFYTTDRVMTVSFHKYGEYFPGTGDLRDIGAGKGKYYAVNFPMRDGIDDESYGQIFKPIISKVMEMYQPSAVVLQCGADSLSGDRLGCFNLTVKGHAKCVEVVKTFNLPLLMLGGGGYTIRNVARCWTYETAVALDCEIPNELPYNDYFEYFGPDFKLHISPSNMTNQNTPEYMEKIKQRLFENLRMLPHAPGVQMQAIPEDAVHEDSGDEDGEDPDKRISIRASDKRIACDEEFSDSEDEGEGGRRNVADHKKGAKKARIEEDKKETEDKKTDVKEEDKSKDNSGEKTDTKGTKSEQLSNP
Sequence of HDAC3 (O15379 whole entry, species assumed, the tested form may be a part): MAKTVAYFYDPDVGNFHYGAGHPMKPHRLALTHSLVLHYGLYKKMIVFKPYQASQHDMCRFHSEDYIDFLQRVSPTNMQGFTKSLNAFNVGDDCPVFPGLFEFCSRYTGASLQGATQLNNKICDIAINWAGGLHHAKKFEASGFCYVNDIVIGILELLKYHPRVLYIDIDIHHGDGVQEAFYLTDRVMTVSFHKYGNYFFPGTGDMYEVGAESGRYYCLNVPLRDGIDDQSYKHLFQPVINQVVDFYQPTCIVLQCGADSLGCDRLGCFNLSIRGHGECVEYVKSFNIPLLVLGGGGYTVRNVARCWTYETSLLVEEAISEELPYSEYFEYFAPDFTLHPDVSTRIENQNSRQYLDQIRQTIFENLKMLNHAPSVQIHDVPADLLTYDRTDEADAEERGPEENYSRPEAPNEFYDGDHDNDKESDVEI
Sequence of HDAC3 (Q9Y618 395-489 partner limits assumed, species assumed): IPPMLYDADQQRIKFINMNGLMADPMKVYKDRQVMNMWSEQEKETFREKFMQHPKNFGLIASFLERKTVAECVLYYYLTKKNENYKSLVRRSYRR

For the molecule `N=c1ccc2c(-c3ccccc3C(=O)NCCCCCC(=O)Nc3ccccc3N)c3ccc(N)cc3oc-2c1` [LL38, 2-(6-(2-(6-amino-3-iminio-3H-xanthen-9-yl)benzamido)hexanamido) benzenaminium 2,2,2-trifluoroacetate], the IC50 against HDAC2 came to 490 nM; against HDAC1 it was 1260 nM; against HDAC3 it was 180 nM.
In the same order, the values of `N=c1ccc2c(-c3ccccc3C(=O)NCCCCCCC(=O)Nc3ccccc3N)c3ccc(N)cc3oc-2c1` [LL45, 2-(7-(2-(6-amino-3iminio-3H-xanthen-9-yl)benzamido)heptanamido) benzenaminium 2,2,2-trifluoroacetate] are 2460 nM, 1950 nM and 55 nM.
Regarding `CCCNNC(=O)c1ccc(CNC(=O)c2ccccc2-c2c3ccc(=N)cc-3oc3cc(N)ccc23)cc1` [LL65, 6-amino-9-(2-((4-(2-propylhydrazine-1-carbonyl)benzyl)carbamoyl)phenyl)-3H-xanthen-3-iminium 2,2,2-trifluoroacetate], the figures for the IC50 at HDAC2, on HDAC1 and against HDAC3 were 849 nM, 276 nM and 36 nM, respectively.
For the molecule `N=c1ccc2c(-c3ccccc3C(=O)NCc3ccc(C(=O)Nc4ccccc4N)cc3)c3ccc(N)cc3oc-2c1` [LL66, 2-(4-((2-(6-amino-3-iminio-3H-xanthen-9-yl)benzamido)methyl)benzamido) benzenaminium 2,2,2-trifluoroacetate], the IC50 against HDAC2 was found to be 3480 nM; at HDAC1 it was 4020 nM; against HDAC3, 355 nM. In the experiment on succinate dehydrogenase, the SDH activity entry is on record as “significantly reduced”. The “maximal uncoupled OCR” value in experiment [1] (setting [3]) and in experiment [1] (setting [4]) was “significantly decreased” in each case. Besides, the “oxidative damage (oxyblotting)” value in the experiment with Langendorff hearts is given as “reduction of oxidative damage”. Further, the “change in SDHA acetylation” value in the experiment on SDHA is listed as “significant changes in acetylation”. Besides, the “acetylation of SDHA K480” value in the experiment on SDHA is “significantly hyperacetylated”. Moreover, the “acetylation of lysine corresponding to mouse SDHA K538” value with SDHA (IR with drug vs IR with vehicle) is listed as “significantly hyperacetylated”. In addition, the “left ventricular function (dP/dtmax, dP/dtmin, developed pressure, rate pressure product)” value in experiment [2] was “same magnitude of LV functional recovery from injury as the non-targeted class I HDAC inhibitor MS-275”. Further, the “infarct area / viable myocardium (TTC staining)” value in experiment [2] is recorded as “rescued viable myocardium to the same extent as MS-275”.
In the case of `CCCNNC(=O)c1ccc(CNC(=O)CNC(=O)c2ccccc2-c2c3ccc(=N)cc-3oc3cc(N)ccc23)cc1` [LL115, 6-amino-9-(2-((2-oxo-2-((4-(2-propylhydrazine-1-carbonyl)benzyl)amino)ethyl)carbamoyl)phenyl)-3H-xanthen-3-iminium 2,2,2-trifluoroacetate], the IC50 is 209 nM against HDAC2, 41 nM against HDAC1 and 5 nM against HDAC3.
Turning to `N=c1ccc2c(-c3ccccc3C(=O)NCCCCCCCC(=O)Nc3ccccc3N)c3ccc(N)cc3oc-2c1` [LL130, 2-(8-(2-(6-amino-3-iminio-3H-xanthen-9-yl)benzamido)octanamido) benzenaminium 2,2,2-trifluoroacetate], the IC50 was found to be 5170 nM against HDAC2, 4730 nM on HDAC1 and 152 nM against HDAC3.
As to `CCCNNC(=O)CCCCCCNC(=O)c1ccccc1-c1c2ccc(=N)cc-2oc2cc(N)ccc12` [LL142, 6-amino-9-(2-((7-oxo-7-(2-propylhydrazinyl)heptyl)carbamoyl)phenyl)-3H-xanthen-3-iminium 2,2,2-trifluoroacetate], the IC50 against HDAC2 amounted to 460 nM; against HDAC1, 111 nM; against HDAC3, 6 nM.
Taken in the same sequence, the figures for `CCCNNC(=O)c1ccc(NC(=O)CNC(=O)c2ccccc2-c2c3ccc(=N)cc-3oc3cc(N)ccc23)cc1` [LL162, 6-amino-9-(2-((2-oxo-2-((4-(2-propylhydrazine-1-carbonyl)phenyl)amino)ethyl)carbamoyl)phenyl)-3H-xanthen-3-iminium 2,2,2-trifluoroacetate] were 468 nM, 124 nM and 7 nM.
Regarding `Nc1ccccc1NC(=O)c1ccc(CNC(=O)OCc2cccnc2)cc1` [MS-275, reference compound], the SDH activity result in the experiment with succinate dehydrogenase is recorded as “significantly reduced”. The “maximal uncoupled OCR” value in experiment [1] (setting [3]) is reported as “significantly decreased”. Also, the “maximal uncoupled OCR” value in experiment [1] (setting [4]) is reported as “significantly decreased”. For the same molecule, in the experiment with Langendorff hearts, the “oxidative damage (oxyblotting)” value is “reduction of oxidative damage”. In the experiment with SDHA, the “change in SDHA acetylation” value is given as “significant changes in acetylation” and the “acetylation of SDHA K480” value is “significantly hyperacetylated”. Also, the “change in acetylation of rat SDHA lysine corresponding to mouse K179” value in the experiment with SDHA (IR vs IR+drug) is given as “not significant”. Moreover, in experiment [2], the “left ventricular function (dP/dtmax, dP/dtmin, developed pressure, rate pressure product)” value is given as “significant preservation of multiple parameters of ventricular function” and the “infarct area / viable myocardium (TTC staining)” value is listed as “significantly reduced infarct area”.
